The nature of series [1]: Solubility of the compound of formula I in compositions with sodium chloride or propylene glycol. In kind it is physicochemical. The note with it: disodium hydrogen phosphate dodecahydrate, pH 7, water for injection. The text has this:
It is worth mentioning that in polypeptide-based preparations, sodium chloride is believed to play a role in maintaining electrolyte balance and stabilizing polypeptide structures, and it is present as a stabilizer in a variety of existing polypeptide-based preparations.

The next series concerns the target GLP-1 receptor (Homo sapiens, UniProt P43220). Briefly: Preclinical agonistic effect on GLP-1 receptor. The following applies: greater activity compared to Tirzepatide; preclinical studies.
The target in the next series is T1, GIP receptor (Homo sapiens, UniProt P48546).
T1 sequence (P48546 22-466): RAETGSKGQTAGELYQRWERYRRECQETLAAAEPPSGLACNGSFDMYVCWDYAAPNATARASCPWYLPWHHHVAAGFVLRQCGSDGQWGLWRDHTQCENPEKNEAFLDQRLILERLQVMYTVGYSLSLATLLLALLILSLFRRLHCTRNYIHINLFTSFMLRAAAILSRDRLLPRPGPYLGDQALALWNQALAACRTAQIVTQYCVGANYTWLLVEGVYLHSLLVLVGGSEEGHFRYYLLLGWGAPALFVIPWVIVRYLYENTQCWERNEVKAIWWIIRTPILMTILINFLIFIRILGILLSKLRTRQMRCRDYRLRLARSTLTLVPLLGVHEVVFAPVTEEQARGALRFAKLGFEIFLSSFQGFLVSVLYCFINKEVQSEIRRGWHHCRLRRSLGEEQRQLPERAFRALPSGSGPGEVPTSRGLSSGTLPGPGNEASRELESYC
Briefly: Preclinical agonistic effect on GIP receptor. The following applies: greater activity compared to Tirzepatide; preclinical studies.

The next series deals with plasma proteins. The experiment in a line: Plasma protein binding. In kind it is in vitro ADME. The note with it: plasma proteins from all species.
Series [2] is described as follows: Pre-clinical pharmacokinetics in rats. The following applies: rat, in vivo.
A short description of series [3]: Pre-clinical pharmacokinetics in cynomolgus monkeys. The note with it: cynomolgus monkey, in vivo.

Bounds are passed on as bounds.

GLP-1 receptor, sequence (P43220 24-463, species assumed): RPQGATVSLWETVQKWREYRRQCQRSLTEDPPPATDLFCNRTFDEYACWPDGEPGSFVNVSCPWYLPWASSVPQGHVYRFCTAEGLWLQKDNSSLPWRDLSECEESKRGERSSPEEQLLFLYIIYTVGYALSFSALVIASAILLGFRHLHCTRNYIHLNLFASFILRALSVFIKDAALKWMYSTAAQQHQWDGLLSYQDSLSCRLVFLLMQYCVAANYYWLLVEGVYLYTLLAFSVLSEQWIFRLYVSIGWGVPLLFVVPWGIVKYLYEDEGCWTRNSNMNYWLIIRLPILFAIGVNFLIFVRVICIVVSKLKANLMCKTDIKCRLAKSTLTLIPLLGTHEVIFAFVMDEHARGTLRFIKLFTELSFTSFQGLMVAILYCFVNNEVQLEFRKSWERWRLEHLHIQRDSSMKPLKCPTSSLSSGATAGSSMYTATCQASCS

Turning to `NC(=O)C(CCCCNC(=O)COCCOCCOCCNC(=O)COCCOCCOCCNC(=O)CCC(NC(=O)CC(=O)O)C(=O)O)NN[C@H](C=O)CO` (stereo partly shown) [Compound of formula I], the solubility was not below 30000 µg/mL in series [1] (pH 7, propylene glycol as stabilizer (14 mg in 1 mL)) and 150 µg/mL in series [1] (sodium chloride instead of propylene glycol (16.4 mg in 2 mL)). Further, the “agonistic activity on GLP-1 receptor compared to Tirzepatide” value on GLP-1 receptor is listed as 2- to 3 fold. The “agonistic activity on GIP receptor compared to Tirzepatide” value on GIP receptor is listed as 2- to 3 fold. Also, the “binding rates to plasma proteins” value with plasma proteins is given as “over 99.4%”. For the same compound, the half-life in series [2] is approximately 14 h; in series [3], approximately 40 h.

As a reminder, the solubility is the concentration that dissolves in the medium under given conditions. Low readings indicate a poorly soluble substance, high ones a readily soluble substance. As a reminder, the half-life is how long it takes for the measured level to halve. Higher therefore signals slow decline.

The values above are taken from patent US20260103497A1, “DUAL GLP-1 AND GIP RECEPTOR AGONIST PHARMACEUTICAL COMPOSITION AND USE THEREOF” (BRIGHTGENE PTE. LTD., priority 2022, published 2026).
